Results reported in patent publication US6596738B1, “Heterocyclic compound, composition and method for inhibiting adenosine deaminase” (Fujisawa Pharmaceutical Co., Ltd., priority 1999, dated 2003).

Tests used:
Human ADA [1] = biological target: T1, Human ADA (Homo sapiens, UniProt P00813); assay: Adenosine deaminase (ADA) enzyme assay [2], IC50 of Vmax inhibition; type: biochemical
T1 construct: made in house; host or cells: ADA-deficient bacterial strain
T1 sequence (P00813 1-363): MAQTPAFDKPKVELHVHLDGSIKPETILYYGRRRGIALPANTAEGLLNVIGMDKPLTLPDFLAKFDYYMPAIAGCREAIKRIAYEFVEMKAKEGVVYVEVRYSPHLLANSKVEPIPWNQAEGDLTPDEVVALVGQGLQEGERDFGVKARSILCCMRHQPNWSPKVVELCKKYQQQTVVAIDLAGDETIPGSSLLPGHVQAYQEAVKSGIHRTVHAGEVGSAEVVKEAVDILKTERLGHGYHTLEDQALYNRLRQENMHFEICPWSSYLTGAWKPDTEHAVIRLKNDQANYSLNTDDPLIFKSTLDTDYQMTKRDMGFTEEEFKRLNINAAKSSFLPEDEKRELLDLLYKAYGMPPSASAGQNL
Protocol: Human ADA was expressed and purified from ADA-deficient bacterial strain. Reaction mixture of a total volume of 200 μl contained 0.16 μg/ml of ADA, 0.1 mM of adenosine and test compound in 10 mM phosphate buffer saline (pH 7.4). The reaction was started by addition of ADA to a mixture of adenosine and test compound.

Human ADA [2] = biological target: T1, Human ADA; assay: Adenosine deaminase (ADA) enzyme assay [1], Ki by Dixon plot; type: biochemical; details: 25 mU/ml ADA, varying concentrations of adenosine, 10 mM phosphate buffer saline pH 7.4, room temperature, A265 for 5 minutes
Protocol: The reaction velocity (V) is measured by a change in absorbance at 265 nm (A265) resulting from the deamination of adenosine. Human ADA was expressed and purified from ADA-deficient bacterial strain. Reaction mixtures in a total volume of 200 μl contained 25 mU/ml of ADA and varying concentrations of adenosine and test compounds in 10 mM phosphate buffer saline (pH 7.4). The reaction was started by addition of ADA to a mixture of adenosine and test compound. The reaction was followed at room temperature by recording decrease in A265 for 5 minutes in SPECTRAmax 250 (Molecular Devices, USA) to automatically calculate Vmax. The inhibition constant (Ki) values of test compounds were determined by Dixon plot.

## C[C@H](O)[C@@H](CCc1cccc2ccccc12)n1cncn1 [Compound A, 1-[(2S,3R)-2-Hydroxy-5-(1-naphthyl)-3-pentyl]-1,2,4-triazole]
Human ADA [1]
  IC50: 0.027 µM

## NC(=O)c1cn([C@@H](CO)CCn2ccc3ccccc32)cn1 [Example 2, 1-[(R)-1-hydroxy-4-(1-indolyl)-2-butyl]imidazole-4-carboxamide]
other
  melting point: 127 to 130 °C

## NC(=O)c1cn([C@@H](CO)CCn2ccc3ccc(NC(=O)CCCc4ccccc4)cc32)cn1 [Example 6-(2), 1-[(R)-1-Hydroxy-4-(6-(4-phenylbutyrylamino)indol-1-yl)-2-butyl]imidazole-4-carboxamide]
Human ADA [2]
  Ki: 0.016 µM
